Experimental data taken from US7029680B1, “Delivery of immunogenic molecules vis HBsAg particles” (Yissum Research Development Company of the Hebrew …, priority 1998, dated 2006).

Experiments:
OVA = test: Anti-OVA humoral (serum antibody) response after immunization; assay type: in vivo; settings: F1 (H-2d/b) mice, FIG. 4D
Procedure: (§1) OVA/HBsAg particles, prepared as described above, were isolated, washed, and adjusted to the appropriate concentration for immunization. The following compositions were injected into F1 (H-2d/b) mice, each in 50 μl PBS (phosphate buffered saline): (a) 1 μg HBsAg particles (without adjuvants); (b) 100 μg native OVA; and (c) 1 μg HBsAg/OVA, as described in Section A above.
(§2) For evaluation of the CTL response, spleen or lymph nodes cells, obtained from immunized mice seven days to five weeks post-vaccination, were specifically restimulated in vitro for five days with syngeneic, irradiated OVA- or HBsAg-peptide-pulsed tumor cells. (The latter cells had been incubated in vitro with the recombinant HBsAg particles for 2 hours at 37° C.) The cells were harvested and tested in a 4-hour ^51Cr release cytolytic assay against antigen-bearing and non-antigen-bearing syngeneic targets. Lysis of cells specific for the HBsAg S protein (P815/S), or for OVA (EG7), was compared to that for nonspecific cells (P815 or EL4, respectively). The EG7 cells are EL4 cells which have been stably transfected with an expression plasmid encoding OVA.

OVA-specific cells (EG7) = test: Anti-OVA CTL response, 51Cr release cytolytic assay after immunization; assay type: in vivo; settings: F1 (H-2d/b) mice; lysis of EG7 vs EL4; FIG. 4B
Procedure: as §1, §2

[1] = tested on: EL4 cells which had been pulsed with HBsAg; test: Anti-HBsAg CTL response in 'nonresponder' mice, 51Cr release assay; assay type: in vivo, 'nonresponder' mice (H-2^b C57BL/6); settings: nonresponder C57BL/6 mice; splenocytes restimulated with HBsAg-pulsed RBL5 cells; FIG. 6A-G
Procedure: To produce the data shown in FIG. 6, several cytokines were loaded into HBsAg particles, following a protocol such as outlined above for OVA, with incubation carried out at 45° C. It was estimated that approximately 10 ng of cytokine was incorporated per μg of HBsAg particles (about 1% incorporation) at this temperature. Groups of ‘nonresponder’ mice (H-2^b C57BL/6) were immunized with HBsAg particles, with and without incorporated cytokines, or with cytokine alone (FIG. 6G), in the amounts shown below: • A: 1 μg ‘naked’ HBsAg particles • B–F: 1 μg HBsAg/cytokine, where the cytokine was: • (b) IL-12, (c) IFN-γ, (d) IL-2, (e) IL-4, • (f) IL-1 β peptide • G: 1 μg IL-12 (control) • H: 1 μg HBsAg/IL-12
After 12 days, splenocytes from the immunized mice were restimulated in vitro for 5 days with HBsAg-pulsed, syngeneic irradiated RBL5 lymphoma cells. For control experiment H, the splenocytes were restimulated with non-pulsed, syngeneic RBL5 cells. The splenocytes (effector cells) were then cocultured with ^51Cr-labeled target cells, and the CTL response was measured by a standard ^51Cr release assay. The target cells were either non-pulsed EL4 cells (open circles in FIGS. 6A–G), or EL4 cells which had been pulsed with HBsAg (solid circles).

| Molecule | anti-OVA humoral response (OVA) | anti-OVA CTL response (OVA-specific cells (EG7)) | anti-HBsAg CTL response [1] |
| --- | --- | --- | --- |
| ovalbumin [OVA alone, native ovalbumin protein, model antigen] | elicited a humoral response | no CTL response and none | – |
| IL-12 alone: cytokine IL-12 without HBsAg (control) (protein, UniProt P29459 23-219; P29460 23-328, looked up) Interleukin-12 subunit alpha: RNLPVATPDPGMFPCLHHSQNLLRAVSNMLQKARQTLEFYPCTSEEIDHEDITKDKTSTVEACLPLELTKNESCLNSRETSFITNGSCLASRKTSFMMALCLSSIYEDLKMYQVEFKTMNAKLLMDPKRQIFLDQNMLAVIDELMQALNFNSETVPQKSSLEEPDFYKTKIKLCILLHAFRIRAVTIDRVMSYLNAS Interleukin-12 subunit beta: IWELKKDVYVVELDWYPDAPGEMVVLTCDTPEEDGITWTLDQSSEVLGSGKTLTIQVKEFGDAGQYTCHKGGEVLSHSLLLLHKKEDGIWSTDILKDQKEPKNKTFLRCEAKNYSGRFTCWWLTTISTDLTFSVKSSRGSSDPQGVTCGAATLSAERVRGDNKEYEYSVECQEDSACPAAEESLPIEVMVDAVHKLKYENYTSSFFIRDIIKPDPPKNLQLKPLKNSRQVEVSWEYPDTWSTPHSYFSLTFCVQVQGKSKREKKDRVFTDKTSATVICRKNASISVRAQDRYYSSSWSEWASVPCS | – | – | no CTL response |
